A word on the IC50: it is the concentration that inhibits the measured activity by half.

In the experiment the target is Short transient receptor potential channel 6 (Mus musculus) (UniProt Q61143). Kind of experiment: TRPC6 inhibitor potency, dose response, cell-based, mouse TRPC6, HEK293, membrane potential (AID 2696). As to conditions: TRPC6-expressing HEK293 cells, membrane potential dye fluorescence, acetylcholine-stimulated.
Chain of Short transient receptor potential channel 6 (Mus musculus) (Q61143 whole entry, looked up): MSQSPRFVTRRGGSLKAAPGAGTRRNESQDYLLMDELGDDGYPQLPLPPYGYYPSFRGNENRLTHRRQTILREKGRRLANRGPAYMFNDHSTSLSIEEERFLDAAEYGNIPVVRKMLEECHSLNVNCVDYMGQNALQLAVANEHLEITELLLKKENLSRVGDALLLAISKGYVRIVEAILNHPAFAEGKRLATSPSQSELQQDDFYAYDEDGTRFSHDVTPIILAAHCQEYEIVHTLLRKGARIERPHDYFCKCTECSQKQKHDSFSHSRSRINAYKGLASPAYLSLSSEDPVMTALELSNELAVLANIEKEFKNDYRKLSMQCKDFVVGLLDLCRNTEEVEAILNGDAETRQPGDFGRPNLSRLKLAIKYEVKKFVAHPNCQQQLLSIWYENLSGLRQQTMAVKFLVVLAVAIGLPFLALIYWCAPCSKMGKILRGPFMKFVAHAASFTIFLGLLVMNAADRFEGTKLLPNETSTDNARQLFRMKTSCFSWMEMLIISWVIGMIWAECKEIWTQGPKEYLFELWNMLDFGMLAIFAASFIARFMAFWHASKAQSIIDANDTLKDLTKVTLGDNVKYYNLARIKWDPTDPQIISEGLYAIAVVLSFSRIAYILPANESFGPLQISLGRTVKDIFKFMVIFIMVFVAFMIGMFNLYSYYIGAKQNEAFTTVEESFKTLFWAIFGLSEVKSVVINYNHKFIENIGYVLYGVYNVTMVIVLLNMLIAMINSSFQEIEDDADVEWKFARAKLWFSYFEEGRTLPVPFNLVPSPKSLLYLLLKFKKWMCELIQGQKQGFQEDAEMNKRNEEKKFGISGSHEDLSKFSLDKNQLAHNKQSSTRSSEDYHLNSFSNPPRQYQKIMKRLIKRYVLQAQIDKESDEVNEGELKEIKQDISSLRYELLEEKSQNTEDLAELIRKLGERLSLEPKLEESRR
`COc1ccc(N2CCN(S(=O)(=O)CCNC(=O)COc3ccccc3C)CC2)cc1`: the IC50 is 39.8 µM.

As for `CC(Cc1ccccc1Sc1ccc(O)cc1)N(C)C` (configuration not stated), the IC50 is 31.6 µM.

For `CC(C)NCC(O)Cn1c2c(c3ccccc31)CCc1c-2cnn1-c1ccccc1` (configuration not stated), the IC50 was 79.4 µM.

As for `CN(C)CCC(=O)N1c2ccccc2Sc2ccc(Cl)cc21`, the 50% inhibitory concentration (IC50) was 8.91 µM.

Take `COc1ccc(C2NC(=O)NC(O)(C(F)(F)F)C2C(=O)c2ccc(C)cc2)cc1` (configuration not stated): the IC50 was 14.1 µM.

For `CCN1C(=O)/C(=C\N2CCCCCC2)SC1=S`, the IC50 was 14.1 µM.

In the case of `CC1CCN(CC(C)CNC(=O)c2cc(-c3ccccn3)nc3ccccc23)CC1` (configuration not stated), the IC50 is 44.7 µM.

Turning to `CN1CCCC1CCNc1ccc2c(=O)c3ccccc3oc2c1` (configuration not stated), the IC50 was 63.1 µM.

As to `Cc1ccc(C)c(NC(=O)C(NCC(C)(C)N2CCOCC2)c2ccccc2)c1` (configuration not stated), the half-maximal inhibitory concentration (IC50) is 25.1 µM.

Turning to `O=C1c2cccc3cccc(c23)C(=O)N1CC1CCN(CC(O)COCc2ccc3c(c2)OCO3)CC1` (configuration not stated), the IC50 is 50.1 µM.

Regarding `Cc1ccc(C(OCC(C)(C)C[N+](C)(C)C)c2ccccc2)cc1` (configuration not stated), the IC50 is 44.7 µM.

Turning to `CN(c1ccccc1)P(=O)(N(C)c1ccccc1)N(C)c1ccccc1`, the IC50 was 44.7 µM.

For `COC(=O)c1ccc(NC(=O)N2CCCC(C(=O)c3ccccc3OC)C2)cc1` (configuration not stated), the IC50 is 79.4 µM.

Regarding `CCCCCC[N+](C)(C)CC/C=C1/c2ccccc2Sc2ccc(Cl)cc21`, the IC50 was 12.6 µM.

Regarding `Cc1ccc(C[n+]2c(-c3ccc(C)cc3)cc(-c3ccc(C)cc3)cc2-c2ccc(C)cc2)cc1`, the 50% inhibitory concentration (IC50) is 79.4 µM.

Turning to `CCN(CC)CCn1c(=N)n(CCOc2ccccc2)c2ccccc21`, the IC50 is 35.5 µM.

As for `COc1cc(/C=N/Nc2nc(N3CCCC3)nc(N3CCCC3)n2)ccc1OCc1ccccc1F`, the IC50 was 39.8 µM.

Regarding `Cc1ccc(C(O)(CCN2CCCCC2)c2ccccc2)cc1` (configuration not stated), the IC50 is 19.9 µM.

In the case of `c1ccc2c(c1)CC1CNCc3cccc(c31)S2` (configuration not stated), the IC50 is 70.8 µM.

For the compound `CCOC(=O)c1cn(C2CC2)c2c(F)c(NCCCN(C)C)c(F)cc2c1=O`, the half-inhibitory concentration (IC50) was 70.8 µM.

`CC(C)C(O)(C#CCN1CCCCCC1)c1ccccc1` (configuration not stated): the IC50 is 44.7 µM.

On to `OC(C#CCCN1CCCCC1)(c1ccccc1)C1CCCCC1` (configuration not stated), for which the half-inhibitory concentration (IC50) is 3.55 µM.

In the case of `NCCCn1c(C(=O)c2ccc(Cl)cc2)c2ccc(C(F)(F)F)cc2[n+]1[O-]`, the IC50 is 44.7 µM.

As for `COc1ccccc1C(=O)NCC1CCN(c2ccc(S(=O)(=O)N3CCOCC3)cc2)CC1`, the concentration for half-maximal inhibition (IC50) is 19.9 µM.

For `CCCC(CCC)C(=O)OC[N+](C)(C)CCOC(=O)C(O)(c1ccccc1)C1CCCC1` (configuration not stated), the IC50 is 1.78 µM.

`O=C1c2ccccc2-c2onc3c(N4CCN(CCO)CC4)cc(N4CCN(C(=O)c5ccco5)CC4)c1c23`: the half-inhibitory concentration (IC50) was 79.4 µM.

In the case of `C/C(=N/OC(=O)c1c(-c2c(Cl)cccc2Cl)noc1C)c1cnccn1`, the IC50 was 31.6 µM.

As for `CC[N+](C)(CC)CCOC(=O)C(O)(c1ccccc1)C1CCCCC1` (configuration not stated), the IC50 is 0.79 µM.

As for `Cc1cccc(C(=O)NNC2=C(C(=O)C(F)(F)F)CCC2)c1O`, the half-maximal inhibitory concentration (IC50) was 44.7 µM.

For `COc1cccc(Nc2nc(NCCO)c3ccccc3n2)c1`, the IC50 was 63.1 µM.

Take `CCOC(=O)c1sc(=S)n(-c2ccccc2Cl)c1SC`: the IC50 is 12.6 µM.

Take `Cc1cc(C)n(-c2nc(SCCN(C)C)c3c4c(sc3n2)COC(C)(C)C4)n1`: the IC50 is 79.4 µM.

Consider `Cc1c(CCOC(=O)C23CC4CC(CC(C4)C2)C3)sc[n+]1Cc1ccccc1`, for which the IC50 was 39.8 µM.

For the compound `Cc1ccc2c(c1)NC(=O)C(CC(=O)Nc1ccc(CN3CCC(C)CC3)cc1)O2` (configuration not stated), the IC50 is 3.98 µM.

As to `CN1C2CCC1CC(OC(c1ccccc1)c1ccccc1)C2` (configuration not stated), the IC50 was 0.32 µM.

In the case of `CCN1CCN(c2nc3ccccc3nc2C(C#N)C(=O)OCc2ccccc2)CC1` (configuration not stated), the IC50 is 70.8 µM.

For `O=[N+]([O-])c1cccc(OCCCN2CCC(Cc3ccccc3)CC2)c1`, the IC50 is 50.1 µM.

For `C[C@H]1OC[C@@H](C[N+](C)(C)C)O1`, the IC50 was 4.47 µM.

Turning to `COC(=O)c1[nH]c2ccc(Br)cc2c1NC(=O)CN1CCN(C2CCCCC2)CC1`, the half-maximal inhibitory concentration (IC50) is 44.7 µM.

Consider `Cn1c(=O)c2c(nc(SCCN3CCCCC3)n2Cc2ccccc2)n(C)c1=O`, for which the IC50 is 70.8 µM.

Turning to `CC(C)(C)NCc1cc(Br)ccc1OCc1cccs1`, the IC50 is 70.8 µM.

Take `Cc1ccc(-c2nc(C(=O)NCCCN3CCOCC3)cc3c2[nH]c2ccccc23)cc1`: the IC50 was 50.1 µM.

In the case of `CN(C)C(C)(C)C#CC(O)(c1ccccc1)c1ccccc1`, the IC50 was 39.8 µM.

With `Cc1ccc(C)c(Nc2nc(N)c3ccccc3n2)c1`, the IC50 is 19.9 µM.

Consider `Cc1cc(N(CCO)CCO)ccc1N=Nc1cc(F)ccc1F`, for which the IC50 is 50.1 µM.

Regarding `O=C1Nc2ccccc2/C1=N\N=C\C1=C(N2CCOCC2)C(=C\c2ccccc2)/CC1`, the IC50 was 39.8 µM.

As to `CCN(CC)CCNc1nc2cc(OC)c(OC)cc2c2nc(-c3ccccc3)nn12`, the IC50 was 79.4 µM.

As for `CCCCCCCCCCCCn1ccc(=N)cc1`, the IC50 is 35.5 µM.

For the compound `Nc1c2c(nc3ccn(Cc4ccccc4)c(=O)c13)CCC2`, the concentration for half-maximal inhibition (IC50) was 70.8 µM.

Regarding `COc1ccccc1Nc1nc(NCC2CCCO2)c2ccccc2n1` (configuration not stated), the IC50 is 79.4 µM.

Take `OC(C#CCCN1CCCCC1)(c1ccccc1)c1ccccc1`: the IC50 is 39.8 µM.

For `Cc1nnc(SCCn2c(N3CCN(C)CC3)nc3c2c(=O)[nH]c(=O)n3C)s1`, the IC50 is 50.1 µM.

On to `Cc1cccc(-c2nc(NCCCN3CCOCC3)c3ccccc3n2)c1`, for which the IC50 is 70.8 µM.

`Cc1ccccc1OCC(=O)NCCS(=O)(=O)N1CCN(c2ccc(F)cc2)CC1`: the IC50 is 44.7 µM.

For the compound `Oc1ccc(CN2CCc3ccccc3C2)c2cccnc12`, the IC50 is 15.8 µM.

Turning to `Cn1c(NCc2c[nH]c3ccccc23)nc2ccccc21`, the IC50 was 50.1 µM.

On to `C[N+]1(CC#CC(O)(c2ccccc2)c2ccccc2)CCCC1`, for which the IC50 was 2.24 µM.

`CCCCCCn1c2c(c(=N)c3c1CCC3)CCC2`: the half-maximal inhibitory concentration (IC50) was 79.4 µM.

On to `CN(C)C/C=C/C(O)(c1ccccc1)c1ccccc1`, for which the IC50 is 10 µM.

Regarding `S=C1N(c2ccccc2)C(c2ccc(Br)cc2)N2CCCN12` (configuration not stated), the IC50 is 17.8 µM.

Consider `CC(Cc1ccccc1Sc1ccccc1O)N(C)C` (configuration not stated), for which the IC50 is 39.8 µM.

`Nc1nc(N2CCN(C/C=C/c3ccccc3)CC2)nc2ccccc12`: the IC50 was 44.7 µM.

As to `CCN(CC)CC(=O)Nc1cc(N(C)C)nc2ccccc12`, the IC50 is 70.8 µM.

With `CCN(CC)CCCNc1nc(-n2nc(C)cc2C)nc2sc3c(c12)CC(C)(C)OC3`, the IC50 is 22.4 µM.

`CC[N+](C)(CC)CCC(c1ccccc1)C1CCCCC1` (configuration not stated): the concentration for half-maximal inhibition (IC50) was 4.47 µM.

`O=C1Nc2ccccc2OC1CC(=O)N1CCN(c2cccc(C(F)(F)F)c2)CC1` (configuration not stated): the IC50 is 79.4 µM.

Regarding `CCN(c1ccccc1)S(=O)(=O)c1cccc(C(=O)N2CCN(S(=O)(=O)c3ccccc3)CC2)c1`, the concentration for half-maximal inhibition (IC50) was 63.1 µM.

On to `CC[N+](C)(CC)CCC/C(=N/O)C(O)(c1ccccc1)c1ccccc1`, for which the IC50 is 15.8 µM.

`COc1ccc(N2C(=O)CSC23C(=O)N2CCCc4cccc3c42)cc1` (configuration not stated): the IC50 was 1.12 µM.

With `COC(=O)c1ccc(CN2CCN(C3CCCC3)C(CCO)C2)cc1` (configuration not stated), the IC50 was 35.5 µM.

Regarding `Cc1onc(-c2ccccc2)c1C(=O)N/N=C/c1ccc([N+](=O)[O-])s1`, the IC50 is 39.8 µM.

In the case of `CCN(CC)CCSc1nnc(Nc2ccccc2)n1-c1ccccc1`, the IC50 was 44.7 µM.

For the origin of these results see PubChem BioAssay AID2696 (Johns Hopkins Ion Channel Center, 2010).
